# From paper PMC5655693, “Conformational stabilization as a strategy to prevent nucleophosmin mislocalization in leukemia” (Scientific Reports, 2017)
# What was measured:
# [1] = biological target: T1, Nucleophosmin (NPM) (Homo sapiens, UniProt P06748); assay: SPR steady state ([…] model, S0.[…] ≈ KD); DSF ΔTm […] °C at […] with C-terminal domain; Trp fluorescence unfolding; assay type: binding
# T1 construct: gene NPM1; full-length NPM (SPR); C-terminal domain residues 243–294 (DSF)
# [2] = biological target: T1, Nucleophosmin (NPM); assay: SPR steady state ([…] model, S0.[…] ≈ KD); DSF ΔTm […] °C at […] with C-terminal domain; assay type: binding
# T1 sequence (P06748 whole entry, the tested form may be a part): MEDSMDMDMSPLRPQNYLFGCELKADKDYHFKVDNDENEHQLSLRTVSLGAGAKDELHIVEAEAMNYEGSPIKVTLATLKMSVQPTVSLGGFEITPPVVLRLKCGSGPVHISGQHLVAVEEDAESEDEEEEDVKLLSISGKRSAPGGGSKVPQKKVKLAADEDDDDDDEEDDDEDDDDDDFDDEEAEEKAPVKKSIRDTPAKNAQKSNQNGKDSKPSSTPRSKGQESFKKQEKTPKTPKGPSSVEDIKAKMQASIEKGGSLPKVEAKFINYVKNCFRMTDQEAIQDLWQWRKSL
smiles,measurement,setting,value
CC1=C(C(=O)Nc2ccc(Br)cn2)C(c2ccccn2)C2=C(CC(c3ccccc3)CC2=O)N1 (centres unmarked) [C1],Kd,[1],68 ± 13 µM
Cc1ccc(-n2c(SCC(=O)Nc3ccc4c(c3)OCCO4)nc3ccccc3c2=O)cc1 [C3],Kd,[2],102 ± 23 µM
